How the values were obtained:
[1] = test system: MTX-naïve adult patients with early RA (<3 years); assay: Study J: FACIT-F fatigue; assay type: in vivo, human; settings: for FACIT-F mean change from baseline: LOCF
Excerpt: (§1) The Health Assessment Questionnaire Disability Index (HAQ DI) is a disease-specific tool that measures patient-reported physical function in 8 categories corresponding to normal activities in daily living. Fatigue is an important yet still often overlooked systemic symptom of RA. The Functional Assessment of Chronic Illness Therapy-Fatigue (FACIT-F) tool, measured by a 13-item, validated scale, assesses the impact of a disease and its therapy on fatigue.
(§2) Study J is described in detail in the above examples. The Health Assessment Questionnaire Disability Index (HAQ DI) and Functional Assessment of Chronic Illness Therapy-Fatigue (FACIT-F) were assessed at baseline, and following 12, 26, 42, 52, 76, and 104 weeks of therapy. Changes in scores were computed by subtracting the baseline from post-treatment score for each patient; mean changes were reported for each treatment group. The HAQ DI is assessed on a scale of 0-3, with higher numbers indicating greater disability. The minimum clinically important difference (MCID) is defined as changes ≧0.22 (Goldsmith C H, et al. J Rheumatol 1993; 20-561-5). The FACIT-F is assessed on a scale of 0-52, with higher scores indicating less fatigue. Changes of ≧4 are considered clinically meaningful (Cella D, et al. J Pain Symptom Manage 2002:24:547-61).

[2] = test system: MTX-naïve adult patients with early RA (<3 years); assay: Study J: HAQ DI; assay type: in vivo, human; settings: for HAQ DI mean change from baseline: LOCF
Excerpt: as §1, §2

[3] = test system: patients with early vs. long-standing RA; settings: human, in vivo
Excerpt: Study J was a 2-year randomized controlled trial in patients with early RA (disease duration<3 years). Participants in these clinical trials and in other phase Mb studies, were routinely evaluated for safety. Reports of serious adverse events (SAE) were tabulated using MedDRA coding by events per 100-patient-years (E/100PY). SAE rates were compared with respect to disease duration between patients with early (<3 yrs) and long-standing RA.

patients with RA = assay: RAPID (routine Apgar-like patient index datasheet) score in 4 adalimumab clinical trials; assay type: in vivo, human; settings: for RAPID (R326), Difference: baseline vs endpoint
Protocol: All 1,391 patients in these trials were evaluated in this study. The RAPID index is based on patient self-report data on a Health Assessment Questionnaire (HAQ), recalibrated to 0-10, based on the following criteria: physical function (0-3): 0=0-0.25, 1=0.26-0.75, 2=0.76-1.5, and 3=1.51-3.0; pain visual analog scale (VAS) (0-3): 0=0-10, 1=11-30, 2=31-60, and 3=61-100; and patient's global status VAS (0-4): 0=0-10, 1=11-25, 2=26-50, 3=51-75, and 4=76-100. All patients were classified at baseline as having a DAS28<5.1 or ≧5.1 or RAPID <5.0 or ≧5.0, the higher values for each indicating severe disease. DAS28 was calculated using swollen joint count, tender joint count, patient's global assessment of disease activity and C-reactive protein (CRP) concentration. Spearman rank correlations and box plots to compare RAPID scores with DAS28 were also analyzed.
Several rescalings of the physical function, pain, and patient's global assessment scales were calculated. The physical function scale is scored 0-3, and was rescaled to 0-3. The pain visual analog scale (VAS) is scored 0-10 and was also rescaled to 0-3. The global VAS is scored 0-10 and was rescaled to 0-4. Thus, the total of the 3 scores ranges from 0-10. Scores were calculated for both continuous and categorical indices. The DAS28 was calculated from the SJC, TJC, patient's global score, and C-reactive protein.

[4] = test system: patients with long-standing RA who had inadequate responses to MTX; assay: Study 1: tender and swollen joint counts; assay type: in vivo, human
Protocol: Two readers assessed X-rays performed at baseline (start of RCT), 1 year (end of RCT), and 3 years (post 2 years OLE). Changes from baseline in Total Sharp Score (TSS), Joint Erosions (JE), and Joint Space Narrowing (JSN) were calculated. ACR 20, 50, and 70 response rates, as well as TJC and SJC, were also measured.

[5] = test system: patients with moderate to severe rheumatoid arthritis; assay: Study C (Canadian open-label, adalimumab 40 mg sc eow add-on): TJC/SJC; assay type: in vivo, human
Protocol: The Canadian Adalimumab Clinical Trial (Study C) was an open-label, multi-center, Phase IIIb study conducted in Canada. […] Efficacy and safety were assessed at baseline, 4, 8, and 12 weeks. Efficacy assessments included tender joint count (TJC 0-28), swollen joint count (SJC 0-28), Disease Activity Score 28 (DAS28), Health Assessment Questionnaire (HAQ), and EULAR response. This was a preliminary analysis of 236 patients. The sample size for each outcome variable is based on the data available at the time of the analysis. The data from this preliminary analysis were compared with the Week 12 data from Study A (N=2008).

[6] = test system: patients with long-standing RA; assay: Study 4: CRP; assay type: in vivo, human
Excerpt: Percentage change of mean clinical improvement from baseline us describe in Table 15 below.

[7] = Study 2 (adalimumab monotherapy)
[8] = Study K (adalimumab with other DMARDs)
[9] = Study C, 12 weeks, preliminary analysis

CN(Cc1cnc2nc(N)nc(N)c2n1)c1ccc(C(=O)N[C@@H](CCC(=O)O)C(=O)O)cc1 [mtx alone, methotrexate]
FACIT-F mean score ([1]; Baseline): 29.0 | FACIT-F mean change from baseline ([1]; ΔWeek 12): 7.8 | FACIT-F mean change from baseline ([1]; ΔWeek 26): 9.5 | FACIT-F mean change from baseline ([1]; ΔWeek 42): 9.3 | FACIT-F mean change from baseline ([1]; ΔWeek 52): 9.0 | FACIT-F mean change from baseline ([1]; ΔWeek 76): 8.5 | FACIT-F mean change from baseline ([1]; ΔWeek 104): 8.8 | HAQ DI mean score ([2]; Baseline): 1.48 | HAQ DI mean change from baseline ([2]; ΔWeek 12): −0.53 | HAQ DI mean change from baseline ([2]; ΔWeek 26): −0.67 | HAQ DI mean change from baseline ([2]; ΔWeek 42): −0.68 | HAQ DI mean change from baseline ([2]; ΔWeek 52): −0.69 | HAQ DI mean change from baseline ([2]; ΔWeek 76): −0.68 | HAQ DI mean change from baseline ([2]; ΔWeek 104): −0.68

adalimumab: human anti-TNF mAb (HUMIRA, Abbott Laboratories), described in U.S. Pat. No. 6,090,382 as D2E7
Any serious infection [3]: 0.040 N/PY | Serious infections [3]: 4.8 E/100PY | RAPID (R326), Endpoint (patients with RA; Study 1 (adalimumab with MTX)): 3.86 | RAPID (R326), Difference (patients with RA; Study 1 (adalimumab with MTX)): 3.22 | RAPID (R326), Endpoint (patients with RA; [7]): 5.88 | RAPID (R326), Difference (patients with RA; [7]): 2.70 | RAPID (R326), Endpoint (patients with RA; Study I (adalimumab with MTX)): 3.84 | RAPID (R326), Difference (patients with RA; Study I (adalimumab with MTX)): 3.43 | RAPID (R326), Endpoint (patients with RA; [8]): 4.22 | RAPID (R326), Difference (patients with RA; [8]): 2.79 | TJC or SJC ([4]; 36 months): 5-7 | patients with 0 swollen joints ([4]; last visit): 22% | patients with 0 tender joints ([4]; last visit): 21% | SJC (0-28), change from baseline, median [5, 9]: −7 (123) | TJC (0-28), change from baseline, median [5, 9]: −10 (123) | mean SJC ([5]; week 12 (baseline 14)): 7.4 | mean TJC ([5]; week 12 (baseline 17)): 8.1 | CRP, % change of mean clinical improvement from baseline ([6]; 6 months): 14% | CRP, % change of mean clinical improvement from baseline ([6]; 12 months): 33% | CRP, % change of mean clinical improvement from baseline ([6]; 24 months): 29% | CRP, % change of mean clinical improvement from baseline ([6]; 36 months): 28% | CRP, % change of mean clinical improvement from baseline ([6]; 48 months): 37%

Source: patent US20120171123A1, “USES AND COMPOSITIONS FOR TREATMENT OF RHEUMATOID ARTHRITIS” (priority 2006, published 2012)
